Source: patent publication US20250228862A1, “METHODS OF USING ATR INHIBITORS” (Repare Therapeutics Inc., priority 2022, published 2025)

Tests used:
[1] = test system: RPE1-hTERT-ΔTP53 STAG2-KO cells; assay: Proliferation (confluency by microscopy) of STAG2-KO cells; assay type: cell-based, human; conditions: 7 days treatment; STAG2-KO clones vs WT counterpart
Protocol: FIG. 1A: Inhibition of the proliferation of STAG2-KO cells by compound 121. The STAG2 gene was knocked out in RPE1-hTERT-ATP53 cells using CRISPR-Cas9 (clone 1 and 2). Cells were then seeded in 96well plate format and treated with indicated concentrations of compound 121 for a period of 7 days. Treatment was refreshed every 4 days. Confluency was then measured using microscopy and normalized to the non-treated condition.
(§1) To assess the impact of STAG2 deficiency in the response to ATRi, we generated RPE1-hTERT-ΔTP53 deficient for STAG2 by knocking out the gene using CRISPR-Cas9. To avoid potential off-target effects, two distinct sgRNA were used to generate each KO clone.

[2] = test system: RPE1-hTERT-ΔTP53 STAG2 KO cells; assay: Colony formation (crystal violet) survival of STAG2-KO cells; assay type: cell-based, human; conditions: 10 days treatment, 6-well plate
Protocol: RPE1-hTERT-ATP53-STAG2 KO cells were seeded in 6-well plate format and treated with the indicated dose of compound 121 for 10 days. Cells were then fixed and stained using a crystal violet-methanol solution. Colonies were counted, and percentage of survival was determined by normalizing the number of colonies after treatment to the number of colonies in the non-treated conditions.
as §1

[3] = test system: CDK12 wild-type (+/+) and knockout (−/−) RPE1 TP53−/− cells; assay: CellTiter Glo viability, isogenic CDK12 +/+ and -/- RPE1 TP53-/- cells; assay type: cell-based, human; conditions: RPE1-hTERT-ΔTP53
Protocol: (§2) FIG. 5A: Dose-response curves of isogenic CDK12 wild-type (+/+) and knockout (−/−) RPE1 TP53−/− cells treated with compound 121. Cell viability was measured by CellTiter Glo assays. Open symbols represent mean from three independent experiments±SD. Solid lines show a non-linear least square fit to a four-parameter dose-response model. Approximately a 2× shift in IC50 was observed.
(§3) To assess the effect of CDK12 inactivation on ATRi sensitivity we used isogenic cell line pairs in the RPE1-hTERT-ΔTP53 and DLD1 human cell line backgrounds, where we compared clones carrying a CRISPR/Cas9-generated knockout of the CDK12 gene (CDK12−/−) with the parental, CDK12-wild type controls (CDK12+/+).

[4] = test system: CDK12 wild-type (+/+) and knockout (−/−) DLD1 cells; assay: CellTiter Glo viability, isogenic CDK12 +/+ and -/- DLD1 cells; assay type: cell-based, human
Protocol: as §2, with “5B:” for “5A:”, “DLD1” for “RPE1 TP53−/−”, “experiments ±SD.” for “experiments±SD.”, “3×” for “2×”
as §3

[5] = test system: 5637 RNASEH2B+/+ bladder cancer cell line tumors; assay: Subcutaneous xenograft tumor growth, 5637 RNASEH2B+/+; assay type: in vivo, mice; conditions: oral gavage once daily, 2 day on/4 day off weekly schedule
Protocol: FIG. 7A: Growth of subcutaneously grafted 5637 RNASEH2B+/+ bladder cancer cell line tumors in immunodeficient mice. Mice were treated by oral gavage with either vehicle or indicated doses of compound 121 once daily at a 2 day on/4 day off weekly schedule. Data are shown as mean±SEM. N=8 mice/group.
(§4) To confirm that RNase H2-deficiency sensitizes to ATRi treatment also in vivo, we developed the isogenic 5637 RNASEH2B+/+ and RNASEH2B−/− bladder carcinoma cell lines as subcutaneous xenografts in immunodeficient mice and treated them with compound 121 or a vehicle control. […] Furthermore, we identified a patient-derived xenograft (PDX) of a triple negative breast cancer, that was RNase H2-deficient as confirmed by immunohistochemistry with a RNase H2-specific antibody.

[6] = test system: 5637 RNASEH2B−/− bladder cancer cell line tumors; assay: Subcutaneous xenograft tumor growth, 5637 RNASEH2B-/-; assay type: in vivo, mice; conditions: oral gavage once daily, 2 day on/4 day off weekly schedule
Protocol: FIG. 7B: Growth of subcutaneously grafted 5637 RNASEH2B−/− bladder cancer cell line tumors in immunodeficient mice. Mice were treated by oral gavage with either vehicle or indicated doses of compound 121 once daily at a 2 day on/4 day off weekly schedule. Data are shown as mean±SEM. N=8 mice/group.
as §4

RPE1 Cas9 TP53−/− cells = assay: CellTiter Glo viability after sgRNA inactivation of RAD51B, RAD51C or RAD51D; assay type: cell-based, human
Protocol: (§5) FIG. 9A: compound 121 dose-response curves of RPE1 Cas9 TP53−/− cells transduced with either a control sgRNA (sgAAVS1) or two sgRNAs targeting RAD51B. Cell viability was determined with a CellTiter Glo assay. Open symbols show mean viability from three independent experiments±SD. Solid lines represent a non-linear least square fit to a four-parameter dose-response model.
as §5, with “9B:” for “9A:”, “RAD51C.” for “RAD51B.”
as §5, with “9C:” for “9A:”, “RAD51D.” for “RAD51B.”
To determine the impact of RAD51B, RAD51C or RAD51D deficiency on ATRi sensitivity we individually inactivated these genes in Cas9-expressing RPE1-hTERT-ΔTP53 cells using two independent sgRNAs per gene.

C[C@@H]1COCCN1c1cc([C@]2(O)C[C@H]3CC[C@@H](C2)O3)c2cnn(-c3cc[nH]n3)c2n1 [compound 121]
Inhibition of proliferation (confluency normalized to non-treated), STAG2-KO vs wild-type [1]: significantly stronger inhibition of proliferation in STAG2-KO cells
Cell death / percentage of survival by colony formation, STAG2-KO vs WT [2]: induces cell death preferentially in STAG2-KO cells
Sensitivity of CDK12-deficient vs parental cells [3]: increased sensitivity
Sensitivity of CDK12-deficient vs parental cells [4]: increased sensitivity
Efficacy on tumor growth [5]: no efficacy
Tumor growth inhibition [6]: profound and dose-dependent tumor growth inhibition
Sensitization upon gene inactivation (CTG viability) (RPE1 Cas9 TP53−/− cells; two sgRNAs targeting RAD51B vs sgAAVS1): sensitized cells to compound 121 treatment to a comparable extent
Sensitization upon gene inactivation (CTG viability) (RPE1 Cas9 TP53−/− cells; two sgRNAs targeting RAD51C vs sgAAVS1): sensitized cells to compound 121 treatment to a comparable extent
Sensitization upon gene inactivation (CTG viability) (RPE1 Cas9 TP53−/− cells; two sgRNAs targeting RAD51D vs sgAAVS1): sensitized cells to compound 121 treatment to a comparable extent
